Test results taken from patent US20250041290A1, “USE OF N-(3-(4-(3-(DIISOBUTYLAMINO)PROPYL)PIPERAZIN-1-YL)PROPYL)-1H-BENZO[d]IMIDAZOL-2-AMINE SUCCINATE SALTS AND SOLVATES THEREOF FOR THE TREATMENT OF MOTOR NEURON DISEASES AND NEUROMUSCULAR JUNCTION DISORDERS” (ALZPROTECT, priority 2021, published 2025).

Assays:
[1] = system: SOD1^G93A Tg rat spinal cord motor neurons; assay: Primary culture of SOD1^G93A Tg rat spinal cord motor neurons injured with glutamate, 48 h incubation; assay type: cell-based; settings: glutamate 5 μM 20 min; for Protective effects of reference drugs after glutamate injury: concentration not given
Protocol: Female (Sprague Dawley, Janvier) were mated at Neuro-Sys (Gardanne, France) with Tg SOD1^G93A male rats (Taconic Bioscience, US). Pregnant females of 14 days of gestation were used for the culture. The day of the dissection, a piece of each embryo head (˜3 mm^3) was placed in a 2 mL DNase free tube with a new scalpel. The DNA was extracted with the SYBR Green Extract-N-Amp tissue PCR kit (Sigma Aldrich). Briefly, 120 μL of extraction solution was put on each piece of embryo heads. Then, they were incubated for 10 min at room temperature. At the end of this incubation period, the heads were incubated for 5 min at 95° C. Immediately after this last incubation, 100 μL of neutralizing solution was added; each DNA extract was diluted at 1/40 and stored at +4° C. until use. SOD1^G93A gene was determined using genomic fragment with human SOD1 primers (5′-[…]-3′ SEQ ID NO: 1; 5′-[…]-3′ SEQ ID NO:2). The SOD1 primers were diluted at 3 μM in sterile ultrapure water. Briefly, a mix for PCR was prepared with ultrapure water (4 μL per sample), primer at 3 μM (2 μL per sample) and Master Mix (10 μL per sample). In a PCR 96 wells plate, 16 μL of PCR mix was added in each well. 4 μL of each diluted DNA was added according to a plan deposit.
Rat spinal cord motor neurons were cultured as described by Boussicault et al., J Neurosci Res. 2020 December; 98 (12), 2435-50 and Wang et al. Hum. Mol. Genet., 2013 December 1; 22 (23), 4706-19. Pregnant female rats of 14 days of gestation were killed by cervical dislocation. The culture was carried out as described in example 1.
On day 13, culture medium was removed and cultures were exposed to the test compounds: N-(3-(4-(3-(diisobutylamino)propyl)piperazin-1-yl)propyl)-1H-benzo[d]imidazol-2-amine) sesqui-succinate salt Form 1, in comparison to Riluzole and Edaravone, and glutamate (5 μM) for 20 min at 37° C. in defined medium. After glutamate exposure, the cultures were washed with defined medium at 37° C. then placed in fresh culture medium containing the test compound, Riluzole or Edavarone for additional 48h.
• The end point evaluation was carried out as described in example 1.
(§1) The statistical analysis was carried out as described in example 1.

people with ALS = settings: injected intravenously; small subset of people with ALS; phase 3; cited from earlier work
[2] = system: neuromuscular junctions in co-culture of human myoblasts and rat spinal cord explants; assay: Co-culture of human myoblasts and rat spinal cord explants (neuromuscular junctions) injured with glutamate; assay type: cell-based; settings: glutamate 60 μM 20 min, 48 h incubation
[3] = system: Rat spinal cord motor neurons (MN); assay: Rat primary spinal cord motor neurons injured with glutamate, 24 h pre-incubation + 24 h post-injury incubation; assay type: cell-based
Protocol: The culture was carried out as described in example 1.
On day 12 of culture, primary motor neurons were treated with the sesqui-succinate Form 1 for 24 hours. On day 13 of culture, glutamate was added to a final concentration of 5 µM diluted in control medium in presence of the sesqui-succinate salt Form 1 for 20 min. After 20 min, glutamate was washed and fresh culture medium with the sesqui-succinate Form 1 was added for an additional 24 hours.
The end point evaluation was carried out as described in example 1.
as §1

[4] = system: Rat spinal cord motor neurons (MN); assay: Rat primary spinal cord motor neurons injured with glutamate, 48 h incubation with compound; assay type: cell-based; settings: glutamate 5 μM 20 min
Protocol: Rat spinal cord motor neurons (MN) were cultured as previously described by Boussicault et al., J Neurosci Res. 2020 December; 98 (12), 2435-50 and Wang et al. Hum. Mol. Genet., 2013-12-1; 22 (23), 4706-19. Pregnant female rats of 14 days gestation (Rats Wistar; Janvier Labs France) were killed using a deep anesthesia with CO2 chamber followed by cervical dislocation. Then, embryos (E14) were removed from the uterus and immediately placed in ice-cold L15 Leibovitz medium with a 2% penicillin (10,000 U/mL) and streptomycin (10 mg/mL) solution (PS) and 1% bovine serum albumin (BSA). Spinal cords were removed and placed in ice-cold medium of Leibovitz (L15). Spinal cords were treated for 20 min at 37° C. with a trypsin-Ethylenediaminetetraacetic acid (EDTA) solution at a final concentration of 0.05% trypsin and 0.02% EDTA. The dissociation was stopped by the addition of Dulbecco's modified Eagle's medium (DMEM) with 4.5 g/liter of glucose, containing DNAse I grade II (final concentration 0.5 mg/mL) and 10% fetal calf serum (FCS). Cells were mechanically dissociated by three forced passages through the tip of a 10-mL pipette. Cells were then centrifuged at 515×g for 10 min at +4° C. The supernatant was discarded, and the pellet was resuspended in a defined culture medium consisting of Neurobasal medium with a 2% solution of B27 supplement, 2 mmol/liter of L-glutamine, 2% of PS solution, and 10 ng/ml of brain-derived neurotrophic factor (BDNF). Viable cells were counted in a Neubauer cytometer, using the trypan blue exclusion test. The cells were seeded at a density of 20,000 per well in 96-well plates precoated with poly-L-lysine and cultured at 37° C. in an air (95%)-CO2 (5%) incubator. The medium was changed every 2 days.
On day 13 of culture, glutamate was added to a final concentration of 5 μM diluted in control medium in presence of the sesqui-succinate Form 1 for 20 min. After 20 min, glutamate was washed and fresh culture medium with the sesqui-succinate Form 1 was added for 48 hours.
After 15 days of culture (48h after the glutamate injury), the cell culture supernatant was collected and the spinal cord MNs were fixed by a cold solution of ethanol (95%) and acetic acid (5%) for 5 min at −20° C. for immunostaining. Cells were washed twice in PBS. Cell membranes were permeabilized and non-specific sites were blocked with a solution of PBS containing 0.1% of saponin and 1% FCS for 15 min at room temperature. Then, cells were incubated for 2 hours with: • a) mouse monoclonal antibody anti-microtubule associated protein 2 (MAP-2) at dilution of 1/400 in PBS containing 1% fetal calf serum and 0.1% of saponin. This antibody binds specifically MAP-2 present in cell bodies and neurites of all MNs. […] Cytoplasmic localization of TDP43 was investigated.
Nuclei of neurons were counterstained with the fluorescent dye (Hoechst).
For each condition, 30 pictures (representative of the whole well area) per well were automatically taken using ImageXpress (Molecular Devices) with 20× magnification. All images were taken under the same conditions (exposition time, gain and laser intensity). Analysis of different endpoints, were automatically performed using Custom Module Editor (Molecular Devices). Motoneurons (MAP-2) were distinguished from interneurons (staining MAP-2) using the following morphological criteria: a cell body diameter […] and the presence of a minimum of three neuritic processes (Ferraiuolo et al. Brain 2011:134; 2627-2641).
The endpoints were: • survival of MNs (MAP-2 staining number of MNs) • neurite network of MNs (MAP-2 staining, total neurite length expressed in μm) • cytoplasmic TDP43 (extranuclear, eTDP43) in MAP-2 positive MNs (overlapping between MAP-2 and cytoplasmic TDP-43 in μm^2). Results are expressed as the ratio of the overlapping MAP-2/TDP-43 per number of MNs.
All values are expressed as mean+/−SEM. Statistical analyses were performed using one-way ANOVA followed by PLSD Fisher test. […]

[5] = 30 nM to 300 nM, 24 h pre-incubation + 24 h incubation
[6] = 30 nM to 300 nM, 48 h incubation

Compound: CC1=NN(c2ccccc2)C(=O)C1 [Edaravone, reference compound]
- Protective effects of reference drugs after glutamate injury ([1]; FIG. 9): protective effects
- Decline of ALS Functional Rating Scale-Revised score compared with placebo (people with ALS): significantly smaller decline

Compound: Nc1nc2ccc(OC(F)(F)F)cc2s1 [Riluzole, reference compound]
- Protective effects of reference drug after glutamate injury ([2]; concentration not given, FIG. 10): protective effects
- Protective effects of reference drugs after glutamate injury ([1]; FIG. 9): protective effects

Compound: N-(3-(4-(3-(diisobutylamino)propyl)piperazin-1-yl)propyl)-1H-benzo[d]imidazol-2-amine sesqui-succinate salt [sesqui-succinate salt Form 1]
- Effect on motor neuron survival compared to the glutamate condition [3, 5]: positive and significant effect
- Effect on neurite network after glutamate damage [3, 5]: able to protect the neurite network
- Reduction of abnormal distribution of TDP-43 (extranuclear TDP-43) ([3]; 30 nM to 300 nM, 24 h pre-incubation + 24 h incubation, glutamate alone mean 139% of control, FIG. 8C): up to 14%
- Neurite network integrity, mean, percentage of control ([3]; 300 nM (maximal effect), 24 h pre-incubation + 24 h incubation, glutamate alone mean 60%, FIG. 8B): 81%
- Motor neuron survival, mean, percentage of control ([3]; 300 nM (maximal effect), 24 h pre-incubation, glutamate 5 µM 20 min, 24 h post-injury incubation, glutamate alone mean 62%, FIG. 8A): 79%
- Neuroprotective effects on neuromuscular junctions and neurite network ([2]; 300 nM): neuroprotective effects on a dose-dependent manner
- Number of NMJs ([2]; 300 nM, versus glutamate, FIG. 10A): increased
- Total area of NMJs ([2]; 300 nM, versus glutamate, FIG. 10B): increased
- Total MNs neurite network (NFH) ([2]; 300 nM, versus glutamate, FIG. 10C): increased
- Protective effects in comparison to Riluzole [2]: comparable to those of Riluzole
- Protective effect on neuronal survival, dose relation ([1]; 3 nM to 100 nM): dose-dependent
- Protective effect on the distribution of TDP-43, dose relation ([1]; 3 nM to 100 nM): dose-dependent
- Neuroprotection (number of MNs, neurite network, TDP-43 distribution) after glutamate injury ([1]; 3 nM to 100 nM, FIG. 9): neuroprotective
- Protective effects in comparison to Riluzole and Edaravone ([1]; 100 nM): comparable to those of Riluzole or Edaravone
- Motor neuron survival (number of MAP-2 positive MNs), mean, percentage of control ([4]; 30 nM (maximal effect), then 48 h with compound, glutamate alone mean 58%, FIG. 7A): 79%
- Effect on motor neuron survival compared to the glutamate condition [4, 6]: positive and significant effect
- Effect on neurite network after glutamate injury [4, 6]: able to improve the neurite network
- Neurite network integrity (MAP-2 total neurite length), mean, percentage of control ([4]; 100 nM (maximal effect), 48 h incubation, glutamate alone mean 62%, FIG. 7B): 77%
- Reduction of accumulation of TDP-43 in the cytoplasm (extranuclear TDP-43) ([4]; 300 nM, 48 h incubation, glutamate alone mean 135% of control, FIG. 7C): up to 17%
- Effect on accumulation of TDP-43 in the cytoplasm (extranuclear TDP-43) ([4]; 30 to 300 nM, 48 h incubation): significantly reduce
